Test results: publication PMC8112869, “Therapeutic inhibition of keratinocyte TRPV3 sensory channel by local anesthetic dyclonine” (eLife, 2021)

Tests used:
[1] = biological target: T1, mouse TRPV3 (Mus musculus, UniProt Q8K424); test: Single-channel inside-out patch recording of TRPV3 from HEK 293T cells; format: cell-based; parameters: expressed in transfected cells; host or cells: HEK 293T
T1 sequence (Q8K424 1-791): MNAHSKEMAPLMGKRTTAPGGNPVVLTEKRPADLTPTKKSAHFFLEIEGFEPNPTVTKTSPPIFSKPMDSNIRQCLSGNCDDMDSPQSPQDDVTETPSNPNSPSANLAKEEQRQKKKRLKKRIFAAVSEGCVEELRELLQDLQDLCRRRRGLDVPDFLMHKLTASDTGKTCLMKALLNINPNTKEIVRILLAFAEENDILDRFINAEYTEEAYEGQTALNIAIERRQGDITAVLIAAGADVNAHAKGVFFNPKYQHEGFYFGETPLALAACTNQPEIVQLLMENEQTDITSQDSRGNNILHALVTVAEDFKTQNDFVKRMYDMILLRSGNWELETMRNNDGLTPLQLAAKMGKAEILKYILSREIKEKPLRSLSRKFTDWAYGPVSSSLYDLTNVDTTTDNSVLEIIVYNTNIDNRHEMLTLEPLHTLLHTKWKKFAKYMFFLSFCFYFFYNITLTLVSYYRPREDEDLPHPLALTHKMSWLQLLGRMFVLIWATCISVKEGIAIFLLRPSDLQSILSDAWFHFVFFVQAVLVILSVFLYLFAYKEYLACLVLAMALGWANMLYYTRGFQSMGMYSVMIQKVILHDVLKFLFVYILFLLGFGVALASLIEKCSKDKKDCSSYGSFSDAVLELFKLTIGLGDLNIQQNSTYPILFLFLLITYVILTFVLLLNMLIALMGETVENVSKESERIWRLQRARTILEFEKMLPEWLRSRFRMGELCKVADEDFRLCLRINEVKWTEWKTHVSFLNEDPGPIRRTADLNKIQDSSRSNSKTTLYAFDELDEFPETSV
Description: Conventional whole-cell and excised patch-clamp recording methods were used. For the recombinant expressing system, green fluorescent EGFP was used as a surface marker for gene expression. Recording pipettes were pulled from borosilicate glass capillaries (World Precision Instruments) and fire-polished to a resistance between 2 and 4 MΩ when filled with internal solution containing (in mM) 140 CsCl, 2.0 MgCl2, 5 EGTA, and 10 HEPES, pH 7.4 (adjusted with CsOH). Bath solution contained (in mM): 140 NaCl, 5 KCl, 3 EGTA, and 10 HEPES, pH 7.4 adjusted with NaOH. For recordings in keratinocytes, the bath saline consisted of (in mM) 140 NaCl, 5 KCl, 2 MgCl2, 2 CaCl2, 10 glucoses, and 10 HEPES, pH 7.4 adjusted with NaOH, and the pipette solution contained (in mM) 140 CsCl, 5 EGTA, and 10 HEPES, pH 7.3 adjusted with CsOH. For single-channel recordings, the pipette solution and bath solution were symmetrical and contained (in mM) 140 NaCl, 5 KCl, 3 EGTA, and 10 HEPES, pH 7.4. Isolated cells were voltage clamped and held at –60 mV using an EPC10 amplifier with the Patchmaster software (HEKAElectronics, Lambrecht, Germany). For a subset of recordings, currents were amplified using an Axopatch 200B amplifier (Molecular Devices, Sunnyvale, CA) and recorded through a BNC-2090/MIO acquisition system (National Instruments, Austin, TX) using QStudio developed by Dr. Feng Qin at State University of New York at Buffalo. Whole-cell recordings were typically sampled at 5 kHz and filtered at 1 kHz, and single-channel recordings were sampled at 25 kHz and filtered at 10 kHz. The compensation of pipette series resistance and capacitance was compensated using the built-in circuitry of the amplifier (>80%) to reduce voltage errors. Exchange of external solution was performed using a gravity-driven local perfusion system. As determined by the conductance tests, the solution around a patch under study was fully controlled by the application of a flow rate of 100 μl/min or greater. Dyclonine hydrochloride, MTSET and carvacrol were purchased from MCE (MedChemExpress). Unless otherwise noted, all chemicals were purchased from Sigma (Millipore Sigma, St. Louis, MO). Water-insoluble reagents were dissolved in pure ethanol or DMSO to make a stock solution and diluted into the recording solution at the desired final concentrations before the experiment. […] In the scratching behavior experiments, carvacrol was first dissolved in 10% ethanol and then diluted in normal saline before administration. All experiments except those for heat activation were performed at room temperature (22–24℃).

[2] = tested on: T-Rex 293 cells expressing WT TRPV3; test: Cell death analysis by flow cytometry (propidium iodide), cells expressing WT TRPV3; format: cell-based, Homo sapiens
Method: (§1) T-Rex 293 cells were grown in DMEM containing 4.5 mg/ml glucose, 10% (vol/vol) FBS, 50 units/ml penicillin, 50 μg/ml streptomycin, and blasticidin S (10 μg/ml), and were incubated at 37°C in a humidified incubator gassed with 5% CO2. Transfections were performed in wells of a 24-well plate using lipofectamine 2000 (Invitrogen). […] Expression of GFP fluorescence detected by an epifluorescence microscope was used as an indicator of gene expression. After treatments with the compounds for 12 hr, cells were collected, washed twice with PBS, resuspended, and then dyed with propidium iodide (PI, Thermo Fisher Scientific) in the dark according to the manufacturer’s instructions. The membrane integrity of the cells was assessed using a BD FACSCelesta flow cytometer equipped with BD Accuri C6 software (BD Biosciences, USA).

[3] = tested on: T-Rex 293 cells expressing TRPV3 G573S; test: Cell death analysis by flow cytometry (propidium iodide), cells expressing G573S mutant; format: cell-based, Homo sapiens
Method: as §1

[4] = dyclonine (50 μM) added to 2-APB (30 μM), averaged
[5] = dyclonine (50 μM) or 2-APB (30 μM) alone, averaged from seven experiments

| unitary conductance ([1]; 10 μM 2-APB with 30 μM dyclonine) [pS] | single-channel open probability ([1]; 30 μM dyclonine with 10 μM 2-APB, +60 mV) | single-channel open probability ([1]; 30 μM dyclonine with 10 μM 2-APB, –60 mV) | Structure (SMILES) | cell death ratio [2, 4] | cell death ratio [3, 4] | cell death ratio [3, 5] | unitary conductance ([1]; 10 μM 2-APB before dyclonine treatment) [pS] | single-channel open probability ([1]; 10 μM 2-APB without dyclonine, +60 mV) | single-channel open probability ([1]; 10 μM 2-APB without dyclonine, –60 mV) | cell death ratio ([2]; 2-APB (30 μM) alone, 12 hr, averaged from seven experiments) |
| --- | --- | --- | --- | --- | --- | --- | --- | --- | --- | --- |
| 179.2 ± 5.5 | 0.12 ± 0.01 | 0.08 ± 0.01 | CCCCOc1ccc(C(=O)CCN2CCCCC2)cc1 [dyclonine] | 9.12% ± 1.42% | 17.68% ± 5.66% | 12.45% ± 2.54% | – | – | – | – |
| – | – | – | NCCOB(c1ccccc1)c1ccccc1 [2-APB, 2-aminoethoxydiphenyl borate] | – | – | 53.60% ± 5.88% | 163.6 ± 6.4 | 0.82 ± 0.02 | 0.8 ± 0.02 | 43.73% ± 3.46% |
